≈ marks a conversion by molar mass, not a printed value. Each block holds one molecule with its values, some of them ahead of it.
Legend:
[1] = biological target: T1, Bifunctional methylenetetrahydrofolate dehydrogenase/cyclohydrolase, mitochondrial (Homo sapiens, UniProt P13995); experiment: Inhibition of recombinant MTHFD2 (unknown origin) using THF as substrate incubated for 30 mins in presence of NAD
T1 sequence (P13995 whole entry): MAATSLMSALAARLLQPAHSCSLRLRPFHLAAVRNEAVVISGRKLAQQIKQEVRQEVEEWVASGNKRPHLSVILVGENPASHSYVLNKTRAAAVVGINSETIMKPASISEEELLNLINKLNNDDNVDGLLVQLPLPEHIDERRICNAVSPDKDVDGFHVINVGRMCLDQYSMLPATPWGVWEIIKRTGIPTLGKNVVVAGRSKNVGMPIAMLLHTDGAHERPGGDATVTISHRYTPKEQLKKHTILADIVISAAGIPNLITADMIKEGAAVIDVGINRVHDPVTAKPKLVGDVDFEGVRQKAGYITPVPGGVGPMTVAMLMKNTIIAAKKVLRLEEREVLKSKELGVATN

[2] = Dissociation constant, acidic pKa of compound; type: physicochemical
[3] = Effective permeability of compound at pH 7.4 by PAMPA; type: ADME; settings: read-out: Peff
[4] = Lipophilicity, logP of compound; type: physicochemical; settings: octanol/water
[5] = Antiproliferative activity against human MDA-MB-231-luc-D3H2LN cells assessed as inhibition of growth after 3 days by CellTiter Glo assay; type: functional; settings: 72 h
[6] = biological target: T2, C-1-tetrahydrofolate synthase, cytoplasmic (Homo sapiens, UniProt P11586)
T2 sequence (P11586 whole entry): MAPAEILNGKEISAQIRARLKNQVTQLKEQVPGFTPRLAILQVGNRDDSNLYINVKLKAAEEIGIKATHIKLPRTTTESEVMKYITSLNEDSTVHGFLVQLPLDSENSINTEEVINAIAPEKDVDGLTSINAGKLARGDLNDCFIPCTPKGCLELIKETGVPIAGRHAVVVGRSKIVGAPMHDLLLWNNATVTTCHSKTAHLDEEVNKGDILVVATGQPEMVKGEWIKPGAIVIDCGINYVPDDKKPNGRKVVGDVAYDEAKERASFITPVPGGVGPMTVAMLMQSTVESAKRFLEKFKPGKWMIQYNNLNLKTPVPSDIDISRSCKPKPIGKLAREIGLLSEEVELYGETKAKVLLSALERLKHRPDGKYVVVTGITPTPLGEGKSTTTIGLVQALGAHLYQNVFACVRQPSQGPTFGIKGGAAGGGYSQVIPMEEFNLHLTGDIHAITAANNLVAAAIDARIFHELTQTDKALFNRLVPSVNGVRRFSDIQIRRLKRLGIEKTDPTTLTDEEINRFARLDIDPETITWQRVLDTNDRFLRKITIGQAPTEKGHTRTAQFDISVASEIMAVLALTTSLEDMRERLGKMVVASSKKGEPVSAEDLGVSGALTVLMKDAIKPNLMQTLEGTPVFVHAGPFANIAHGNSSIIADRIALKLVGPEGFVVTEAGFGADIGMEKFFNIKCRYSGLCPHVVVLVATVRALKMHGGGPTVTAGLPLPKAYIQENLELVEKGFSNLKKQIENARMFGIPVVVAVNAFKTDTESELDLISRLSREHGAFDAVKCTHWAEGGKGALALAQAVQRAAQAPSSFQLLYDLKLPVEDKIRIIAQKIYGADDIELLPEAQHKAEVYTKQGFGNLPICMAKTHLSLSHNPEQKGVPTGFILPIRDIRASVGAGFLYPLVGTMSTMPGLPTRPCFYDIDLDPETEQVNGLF
Description: Inhibition of recombinant MTHFD1 (unknown origin) using THF as substrate incubated for 30 mins in presence of NAD

[7] = Lipophilicity, logD of compound; type: physicochemical; settings: octanol/water
[8] = AUC in BALBc mouse at 10 mg/kg, po measured for 24 hrs by LC-MS/MS analysis; type: ADME, organism-based; settings: in vivo
[9] = AUC in BALBc mouse at 100 mg/kg, po measured for 24 hrs by LC-MS/MS analysis; type: ADME, organism-based; settings: in vivo
[10] = AUC in BALBc mouse at 30 mg/kg, po measured for 24 hrs by LC-MS/MS analysis; type: ADME, organism-based; settings: in vivo
[11] = AUC in BALBc mouse at 300 mg/kg, po measured for 24 hrs by LC-MS/MS analysis; type: ADME, organism-based; settings: in vivo
[12] = Cmax in BALBc mouse at 10 mg/kg, po measured for 24 hrs by LC-MS/MS analysis; type: ADME, organism-based; set-up: dose 10 mg/kg, route oral; settings: in vivo
[13] = Cmax in BALBc mouse at 30 mg/kg, po measured for 24 hrs by LC-MS/MS analysis; type: ADME, organism-based; set-up: dose 30 mg/kg, route oral; settings: in vivo
[14] = Cmax in BALBc mouse at 100 mg/kg, po measured for 24 hrs by LC-MS/MS analysis; type: ADME, organism-based; set-up: dose 100 mg/kg, route oral; settings: in vivo
[15] = Cmax in BALBc mouse at 300 mg/kg, po measured for 24 hrs by LC-MS/MS analysis; type: ADME, organism-based; set-up: dose 300 mg/kg, route oral; settings: in vivo
[16] = Half life in BALBc mouse at 10 mg/kg, po measured for 24 hrs by LC-MS/MS analysis; type: ADME, organism-based; settings: in vivo
[17] = Half life in BALBc mouse at 30 mg/kg, po measured for 24 hrs by LC-MS/MS analysis; type: ADME, organism-based; settings: in vivo
[18] = Half life in BALBc mouse at 100 mg/kg, po measured for 24 hrs by LC-MS/MS analysis; type: ADME, organism-based; settings: in vivo
[19] = Half life in BALBc mouse at 300 mg/kg, po measured for 24 hrs by LC-MS/MS analysis; type: ADME, organism-based; settings: in vivo
[20] = Effective permeability of compound at pH 5 by PAMPA; type: ADME; settings: read-out: Peff
[21] = Solubility of compound in pH 1.2; type: physicochemical; settings: buffer
[22] = Solubility of compound in pH 6.8; type: physicochemical; settings: buffer
[23] = Metabolic stability in mouse liver microsomes assessed as remaining parent compound at 1 uM after 0.5 hrs; type: ADME, Microsome; settings: read-out: Stability
[24] = Fraction unbound in mouse plasma; type: ADME, cell-free
[25] = Free plasma concentration in BALBc mouse at 10 to 300 mg/kg, po measured after 24 hrs by LC-MS/MS analysis; type: ADME, organism-based; settings: in vivo
[26] = Antitumor activity against human MDA-MB-231-Luc cells xenografted in BALB/cAJcl nu/nu mouse assessed as tumour growth inhibition at 300 mg/kg, po administered bid for 11 days and measured every 2 to 3 days relative to control; type: functional; settings: read-out: TGI
[27] = Toxicity in BALB/cAJcl nu/nu mouse xenografted with human MDA-MB-231-Luc cells assessed as body weight loss at 30 to 300 mg/kg, po administered bid for 11 days and measured every 1 to 2 days; type: organism-based; settings: in vivo

Description for Homo sapiens: Antitumor activity against human MDA-MB-231-Luc cells xenografted in orally dosed BALB/cAJcl nu/nu mouse assessed as tumour growth inhibition administered bid for 11 days and measured every 2 to 3 days relative to control

IC50 [1]: 38 nM
pKa [2]: 6.9
Papp [3]: 16.9 ×10⁻⁶ cm/s
logP [4]: 1.7
IC50 [6]: 8 µM
SMILES: Cc1c(N2CCN(C)CC2)ccc2c3c(c(=O)oc12)CN(C(=O)c1ccc(NS(C)(=O)=O)c(F)c1)CC3
GI50 [5]: 2 µM

IC50 [1]: 400 nM
pKa [2]: 8.4
Papp [3]: 44.2 ×10⁻⁶ cm/s
logP [4]: 1.6
IC50 [6]: > 30 µM
SMILES: COc1cc(C(=O)N2CCc3c(c(=O)oc4c(C)c(N5CCN(C)CC5)ccc34)C2)ccc1NS(C)(=O)=O
GI50 [5]: 10 µM

pKa [2]: 6.8
Papp [3]: 43.7 ×10⁻⁶ cm/s
logP [4]: 1.9
SMILES: Cc1c(N2CCN(C)CC2)ccc2c3c(c(=O)oc12)CN(C(=O)c1ccc(NS(C)(=O)=O)c(OC(F)(F)F)c1)CC3
GI50 [5]: 0.38 µM

IC50 [1]: 200 nM
pKa [2]: 8.2
Papp [3]: 5.4 ×10⁻⁶ cm/s
logP [4]: 1.6
IC50 [6]: > 30 µM
SMILES: Cc1c(N2CCN(C)CC2)ccc2c3c(c(=O)oc12)CN(C(=O)c1ccc(NS(C)(=O)=O)cc1)CC3
GI50 [5]: 6.3 µM

Second part, the molecule before the results:

SMILES: Cc1c(N2CCN(C)CC2)ccc2c3c(c(=O)oc12)CN(C(=O)c1ccc2c(c1)CS(=O)(=O)N2)CC3.O=C(O)C(F)(F)F
IC50 [1]: 18 nM
pKa [2]: 5.7
Papp [3]: < 0.1 ×10⁻⁶ cm/s
logP [4]: 1.6
GI50 [5]: 19 µM
IC50 [6]: 5.2 µM

SMILES: Cc1cccc2oc(=O)c3c(c12)CCN(C(=O)c1ccc(C(=O)O)cc1)C3
IC50 [1]: 1300 nM
IC50 [6]: > 30 µM

SMILES: Cc1c(N2CCN(C)CC2)ccc2c3c(c(=O)oc12)CN(C(=O)c1cc(Cl)cc(NS(C)(=O)=O)c1)CC3
IC50 [1]: 89 nM
Papp [3]: 6.6 ×10⁻⁶ cm/s
logP [4]: 1.8
GI50 [5]: 5.5 µM
IC50 [6]: > 30 µM

SMILES: Cc1c(OCCN(C)C)ccc2c3c(c(=O)oc12)CN(C(=O)c1ccc2c(c1)CS(=O)(=O)N2)CC3
IC50 [1]: 53 nM
IC50 [6]: 8.4 µM

SMILES: Cc1c(N2C[C@@H](C)N(C)[C@@H](C)C2)ccc2c3c(c(=O)oc12)CN(C(=O)c1ccc(NS(C)(=O)=O)c(Cl)c1)CC3
logP [4]: 2.2
GI50 [5]: 0.76 µM
logD [7]: 1.7

SMILES: Cc1c(N2CCN(C)[C@@H](C)C2)ccc2c3c(c(=O)oc12)CN(C(=O)c1ccc(NS(C)(=O)=O)c(OC(F)(F)F)c1)CC3
Papp [3]: > 50 ×10⁻⁶ cm/s
logP [4]: 2.1
GI50 [5]: 0.34 µM
logD [7]: 1.9
AUC at 24 h [8]: 64400 ng·h/mL
AUC at 24 h [9]: 726 µg·h/mL
AUC at 24 h [10]: 264 µg·h/mL
AUC at 24 h [11]: 1630 µg·h/mL
Cmax [12]: 11400 ng/mL
Cmax [13]: 56.5 µg/mL
Cmax [14]: 90.1 µg/mL
Cmax [15]: 143 µg/mL
half-life [16]: 133 min
half-life [17]: 130 min
half-life [18]: 139 min
half-life [19]: 240 min
Papp [20]: 17.2 ×10⁻⁶ cm/s
solubility [21]: 1100 µg/mL (≈ 1810 µM)
solubility [22]: 630 µg/mL (≈ 1040 µM)
remaining at 0.5 h, 1 µM [23]: 66%
fraction unbound [24]: 0.031
Cp(f) [25]: 0 µg/mL
inhibition in vivo at 300 mg/kg [26]: 67%
Activity [27]: Non-Toxic
TGI (Homo sapiens): Dose-dependent effect

SMILES: CN(C)CCOc1ccc2c3c(c(=O)oc2c1)CN(C(=O)c1ccc(C(=O)O)cc1)CC3
IC50 [1]: 340 nM
IC50 [6]: > 30 µM

— ChEMBL document CHEMBL4334513, “Discovery of a Potent, Selective, and Orally Available MTHFD2 Inhibitor (DS18561882) with in Vivo Antitumor Activity” (J Med Chem, 2019)
